Assay results published in patent US20220096452A1, “LOCAL ANESTHETIC FOR THE TREATMENT OF NEUROLOGICAL SYMPTOMS RESULTING FROM BRAIN DYSFUNCTIONS” (ICM (INSTITUT DU CERVEAU ET DE LA MOELLE ÉPINIÈRE), priority 2019, published 2022).
“Also recorded” adds a separate entry of the source.

Experiments:
Format in all cases: in vivo, human
[1] = system: patient who suffered from almost complete cortical blindness following a bilateral occipital stroke; assay: 18F-FDG PET-scan brain metabolism, on vs off periods
[2] = system: patient who suffered from almost complete cortical blindness following a bilateral occipital stroke; assay: Visual field assessment, full-threshold Humphrey visual field (HVF), 24-2 SITA
Source text: Those clinical observations were supported and refined by assessment of the visual field with the full-threshold Humphrey visual field (HVF), 24-2 Swedish Interactive Thresholding Algorithm (SITA) (Carl Zeiss Meditec Inc., Dublin, Calif.).
The same pattern prevailed using Goldmann perimetry.

[3] = system: patient who suffered from almost complete cortical blindness following a bilateral occipital stroke; assay: Neurovisual evaluation (BORB and other tests) during on periods
Source text: As shown in the table below, during on periods, all tests involving visual perception were normal, except for a mild deficit in the Facial recognition test, with no discernible impairment of face perception in everyday life.

[4] = system: patient who suffered from almost complete cortical blindness following a bilateral occipital stroke; assay: General neurological examination; conditions: either off or on Mepivacaine
Source text: Apart from the patient's visual status, […] general neurological examination was normal, either off or on Mepivacaine. They had no sensory or motor impairment, no abnormalities of the cranial nerves, no cognitive deficit (MMSE=29/30, FAB 16/18, Five Words Test 10/10). There was no psychiatric symptoms, except for a depressive mood whenever the patient was off medication and virtually blind.

[5] = system: patient who suffered from almost complete cortical blindness following a bilateral occipital stroke; assay: Clinical assessment of vision (visual field by confrontation), on vs off periods
Source text: In 2010, a patient underwent surgery for the removal of a cervical herniated intervertebral disc (C6-C7). Immediately following surgery, they suffered from a dissection of their right vertebral artery, resulting in bilateral occipital and right cerebellar infarcts. They presented initially with almost complete cortical blindness, left hemiparesis, gait instability, mild swallowing difficulties. Visual perception improved in a small peripheral part of their right visual hemifield, while all other symptoms recovered fully.
The inverse phenomenon took place, over about 1 minute, during the transition from on to off periods.

[6] = system: patient who suffered from almost complete cortical blindness following a bilateral occipital stroke; assay: Resting state functional MRI connectivity, on vs off periods
Protocol: Resting state fMRI is a method of functional magnetic resonance imaging (fMRI) that is used in brain mapping to evaluate regional interactions that occur in a resting or task-negative state, when an explicit task is not being performed. We gathered MRI images while the patient was at rest with their eyes closed, during off and on periods. Those data were analyzed using the CONN toolbox (https://web.conn-toolbox.org/home). We report here two results providing pathophysiological correlates of vision recovery in the patient's right visual hemifield under Mepivacaine.
The left early visual cortex (or calcarine cortex) is the entry gate into the brain of visual information from the right hemifield. […] We predicted that whatever its underlying mechanism, functional recovery implies a restoration of functional communication between the left calcarine cortex and distant cortical areas.
We predicted that the restoration of vision should be accompanied with an overall increase of connectivity between the visual system and the rest of the brain. We computed for each voxel of the brain the average connectivity with the rest of the brain (or “intrinsic connectivity”), and studied the changes of this value between off and on periods.

`Cc1cccc(C)c1NC(=O)C1CCCCN1C` (stereo not shown) [Mepivacaine, I-methyl-2′,6′-pipecoloxylidide] was tested, and the “metabolism in the severely lesioned right mesial occipital cortex” value ([1]; on and off periods) was “severe and constant hypometabolism”, the “metabolism in the intact left occipital and temporal cortex” value ([1]; on vs off periods, FIG. 6) was “significant increase in metabolism” and the “vision in the left superior quadrant” value ([2]; on period / under Mepivacaine) was “recovered in a small paramedial island in the left superior quadrant; also recorded: extends to part of the left superior quadrant”. The “vision in the right hemifield (HVF)” value ([2]; on period, FIG. 2) was “vision returned to normal in the whole right hemifield, except for a small superior paracentral island”, the “island of right visual field corresponding to right occipital infarct” value ([2]; under Mepivacaine) was “not improved” and the “BORB TEST 1: Copying, score” value [3] was 9/9. For the same compound, the “BORB TEST 2: Length Match Task, score” value [3] was 26/30, the “BORB TEST 3: Size Match Task, score” value [3] was 28/30 and the “BORB TEST 4: Orientation Match Task, score” value [3] was 25/30. For the same compound, the “BORB TEST 5: Position of Gap Match Task, score” value [3] was 37/40, the “BORB TEST 7: Minimal Feature View Test, score” value [3] was 25/25 and the “BORB TEST 8: Foreshortened View Task, score” value [3] was 25/25. The “BORB TEST 9: Drawing from Memory, score” value [3] was 6/6, the “BORB TEST 10: Object Decision Task, score” value [3] was 26/32 and the “BORB TEST 11: Function Match Task, score” value [3] was 31/32. For the same compound, the “BORB TEST 12: Associative Match Task, score” value [3] was 29/30, the “Benton's Judgment of Line Orientation, score” value [3] was 14/15 and the “Block design test (WAIS-IV), score” value [3] was 53/66. For the same compound, the “Facial recognition test (Benton, 1963), score” value [3] was 38/54, the “Facial recognition test, in words” value [3] was “mild deficit” and the “Hooper Test (Richardson and Marattoli, 1996), score” value [3] was 27/30. For the same compound, the “Matrix reasoning test (WAIS-IV), score” value [3] was 22/26, the “OD 80 picture naming test (Deloche and Hannequin, 1996), score” value [3] was 80/80 and the “all tests involving visual perception” value [3] was “normal”. For the same compound, the “Block design test (WAIS-IV), NS” value ([3]; NS) was 13, the “Matrix reasoning test (WAIS-IV), NS” value ([3]; NS) was 14 and the “BORB TEST 2: Length Match Task, z” value ([3]; z score) was 0.56. For the same compound, the “BORB TEST 3: Size Match Task, z” value ([3]; z score) was 0.29, the “BORB TEST 4: Orientation Match Task, z” value ([3]; z score) was 0.08 and the “BORB TEST 5: Position of Gap Match Task, z” value ([3]; z score) was 0.48. For the same compound, the “BORB TEST 7: Minimal Feature View Test, z” value ([3]; z score) was 0.85, the “BORB TEST 8: Foreshortened View Task, z” value ([3]; z score) was 1.31 and the “BORB TEST 10: Object Decision Task, z” value ([3]; z score) was 0.45. The “BORB TEST 11: Function Match Task, z” value ([3]; z score) was 0.45, the “BORB TEST 12: Associative Match Task, z” value ([3]; z score) was 0.63 and the “Hooper Test (Richardson and Marattoli, 1996), z” value ([3]; z score) was 1.30. The “general neurological examination (apart from visual status)” value [4] was “normal”, the “vision in the left hemifield (confrontation)” value ([5]; during on periods) was “dense hemianopia persisted” and the “vision in the right hemifield (confrontation)” value ([5]; during on periods) was “vision returned to normal in the right hemifield”. For the same compound, the “duration of transition from off to on periods (widening of spared vision to whole right hemifield)” value ([5]; patient description) was “over a matter of seconds”, the “duration of transition from on to off periods” value ([5]; patient description) was “about 1 minute” and the “visual ability of the patient” value ([5]; pursuant administration, single patient) was “improvement of visual ability”. For the same compound, the “functional connectivity of right-hemispheric calcarine region (control analysis)” value [6] was “no significant differences between on and off periods”, the “functional connectivity of left calcarine cortex with bilateral frontoparietal regions” value ([6]; FIG. 4) was “increase in connectivity” and the “functional connectivity of left calcarine cortex with mesial and lateral regions (default-mode network)” value ([6]; FIG. 4) was “decrease in correlation”. The “intrinsic connectivity of bilateral lateral occipital cortex with the rest of the brain” value ([6]; FIG. 5) was “increased its average functional connectivity with the rest of the brain”.
